Consider two compounds from US20190224166A1, “Compositions and Methods for Treating Muscle Loss” (Augusta University Research Institute, Inc., priority 2018, published 2019).

“Also recorded” adds a separate entry of the source.

In assay [1] the test system is quadriceps femoris. The experiment in a line: Muscle ROS by 4HNE immunostaining of paraffin-embedded muscle sections, mice treated with kynurenine. Type of assay: in vivo, C57BL/6 mice. Conditions: young mice, kynurenine 10 mg/kg BW, 4 weeks, P<0.05. How it is done:
(§1) This example investigated the relationship between kynurenine, a circulating tryptophan metabolite which increases with age, and markers of muscle oxidative stress. C2C12 myoblasts were treated with kynurenine in a dose-dependent manner (0, 1, 10 μM) and reactive oxygen species (“ROS”) was measured using an Amplex red assay. Human myoblasts were also treated with kynurenine (100 μM) and ROS was measured. Female C57BL/6 mice 6 months of age were treated with kynurenine (10 mg/kg BW) or with saline (vehicle control) for 4 weeks. Muscle mass and fiber size were measured from the quadriceps femoris ex vivo, and ROS was measured from paraffin-embedded muscle sections using immunostaining for 4HNE.

Assay [2] concerns quadriceps femoris. As to the kind of experiment: Muscle mass and fiber size of quadriceps femoris ex vivo, mice treated with kynurenine for 4 weeks. As to conditions: young mice, kynurenine 10 mg/kg BW. It counts as in vivo, C57BL/6 mice. The method, then: as §1
The next assay relates to C2C12 myoblasts. As to the kind of experiment: ROS by Amplex red assay in C2C12 myoblasts treated with kynurenine. Type of assay: cell-based. The method, then: as §1
The subject of the next assay is human myoblasts. The experiment in a line: ROS in human myoblasts treated with kynurenine. Type of assay: cell-based. How it is done:
as §1

Another assay relates to quadriceps muscle. The experiment in a line: Proteomic analysis of quadriceps muscle of aged mice treated with 1-methyl-D-tryptophan (Table 1, TOPPGENE enrichment). It counts as in vivo. The method, then:
(§2) Female mice 22 months of age were obtained from the National Institute on Aging and treated with saline (vehicle) or 1-methyl-D-tryptophan (1-MT, Sigma, 452483, lot#MKBZ1441V) at a low dose (10 mg/kg BW) or at a high dose (100 mg/kg BW). Mice were treated daily for 4 weeks. Treatments were administered i.p. with an injection volume of 0.2 ml following IACUC approved procedures. Mice were euthanized by CO2 overdose and muscles harvested for analysis. One quadriceps muscle was snap frozen for proteomics and the other quadriceps muscle fixed in buffered formalin for paraffin embedding and trichrome staining. The tibialis anterior was placed in PBS for amplex red assay.
The IDO inhibitor, 1-methyl-D-tryptophan, blocks kynurenine production and reduces levels of ROS in muscle.

The next assay deals with tibialis anterior. As to the kind of experiment: Muscle ROS by Amplex red assay in aged mice treated with 1-methyl-D-tryptophan. Type of assay: in vivo. How it is done:
as §2

[3] abbreviates: aged mice, 1-methyl-D-tryptophan treatment.
[4] abbreviates: aged mouse muscle after 1-methyl-D-tryptophan treatment.

Turning to `Nc1ccccc1C(=O)CC(N)C(=O)O` (stereo not shown) [kynurenine], the “ROS increase based on 4HNE staining, compared to control” value in the assay with quadriceps femoris [1] turned out to be 20%. Also, the “quadriceps weight relative to body weight, reduction compared to controls” value in the assay with quadriceps femoris [2] worked out at 10%. Further, the “muscle fiber size compared to controls” value in the assay on quadriceps femoris [2] (P<0.01) is listed as “significantly lower”. In addition, the “reactive oxygen species (H2O2 concentration/protein concentration)” value with C2C12 myoblasts (1 μm and 10 μm kynurenine, FIG. 1A) is on record as “increases”. In addition, the ROS increase in the assay on C2C12 myoblasts (kynurenine at both low and high concentrations (1, 10 μM), P<0.01) turned out to be 2 fold. Moreover, the ROS result with human myoblasts (100 μM kynurenine) is on record as “increased”. Also, the reactive oxygen species result with human myoblasts (10 μm kynurenine, FIG. 1B) is “increases”.
For `Cn1cc(C[C@@H](N)C(=O)O)c2ccccc21` [1-methyl-D-tryptophan, reference compound], in the assay on quadriceps muscle (setting [3]), the “factors associated with muscle oxidative stress (proteomic analysis)” value is recorded as “reduced; also recorded: decreases” and the “levels of myosin 4 (proteomic analysis)” value is given as “increases”. In the assay with quadriceps muscle (setting [4]), the “factors associated with muscle degradation (ubiquitin ligases) and oxidative stress (TOPPGENE enrichment of downregulated proteins)” value is reported as “decreased levels”; the “factors associated with muscle protein synthesis (TOPPGENE enrichment of upregulated proteins)” value was “increased levels”. Moreover, the “levels of ROS in muscle (Amplex red assay)” value with tibialis anterior (1-methyl-D-tryptophan i.p. daily for 4 weeks) is on record as “decrease”. The kynurenine production result in the assay with tibialis anterior (1-methyl-D-tryptophan treatment) is “blocks”.
